This is an account of results in PubChem BioAssay AID624207 (Sanford-Burnham Center for Chemical Genomics, 2012).

This assay concerns the target Tyrosine-protein phosphatase non-receptor type 5 (Homo sapiens) (UniProt P54829). Nature of the assay: PTPN5 inhibition measured colorimetrically – biochemical, colorimetric absorbance, orthogonal assay for STEP inhibitor project, dose response (AID 624207). The note with it: recombinant STEP, pNPP colorimetric absorbance.

Structures are written as SMILES. The source made the active and inactive calls.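 Rule for the calls: active = compounds blocking the phosphatase with IC50 at or below a set limit; inactive = the rest.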

Sequence of Tyrosine-protein phosphatase non-receptor type 5 (Homo sapiens) (P54829 whole entry, looked up): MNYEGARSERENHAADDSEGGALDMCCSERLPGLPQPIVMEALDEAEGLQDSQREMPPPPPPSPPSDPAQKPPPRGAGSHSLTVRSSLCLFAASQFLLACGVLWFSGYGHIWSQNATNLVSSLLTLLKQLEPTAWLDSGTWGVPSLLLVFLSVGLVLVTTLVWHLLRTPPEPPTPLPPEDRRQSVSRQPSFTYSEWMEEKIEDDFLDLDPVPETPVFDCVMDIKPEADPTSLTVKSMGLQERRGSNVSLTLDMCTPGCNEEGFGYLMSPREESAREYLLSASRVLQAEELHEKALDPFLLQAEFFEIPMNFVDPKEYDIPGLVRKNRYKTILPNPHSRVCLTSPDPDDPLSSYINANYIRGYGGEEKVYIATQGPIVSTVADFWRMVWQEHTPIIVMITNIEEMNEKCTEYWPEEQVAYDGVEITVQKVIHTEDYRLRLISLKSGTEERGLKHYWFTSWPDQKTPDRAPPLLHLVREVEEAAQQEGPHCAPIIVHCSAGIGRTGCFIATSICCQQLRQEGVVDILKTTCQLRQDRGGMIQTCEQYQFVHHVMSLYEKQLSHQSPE

The term IC50 denotes the point on the concentration scale where inhibition reaches its midpoint. Consider `S=C1NC2=C(CCCC2=C2SCCS2)C(c2ccccc2)N1` (centres undefined), for which the IC50 result is “inactive”.
In the case of `CCOc1cc(/C=N/N=C2/NC(=O)C(CC(=O)O)S2)ccc1OCc1ccc(Cl)cc1Cl` (centres undefined), the IC50 is > 80 µM (inactive).
Consider `CC1=C(O)C(=O)C(C2=C(O)C(=O)C(C)=C(O)C2=O)=C(O)C1=O`, for which the IC50 was > 80 µM (inactive).
Regarding `COc1ccc(OC)c(N2C(=O)[C@@H]3C(c4ccccc4Cl)=NO[C@@H]3C2=O)c1`, the IC50 was > 80 µM (inactive).
In the case of `O=C(NN=Cc1ccccc1O)c1cccc([N+](=O)[O-])c1`, the concentration for half-maximal inhibition (IC50) was 15.8 µM.
To `CSc1ccc(C=NNc2ccc(S(=O)(=O)Nc3ccccc3C(=O)O)cc2[N+](=O)[O-])cc1` belongs 4.99 µM; to `COc1ccc(/C=N/N=C2/NC(=O)C(CC(=O)O)S2)cc1OCc1ccc(Cl)cc1Cl` (centres undefined), 13.6 µM.
Next, `O=C1C(=O)N(CCCO)C(c2ccc(Br)cc2)/C1=C(\O)c1ccc(Br)cc1` (centres undefined): “inactive”; `S=C1NC(C23CC4CC(CC(C4)C2)C3)=CC(c2ccc3c(c2)OCO3)N1` (centres undefined): > 80 µM (inactive).
